From ChEMBL document CHEMBL1201862, “PubChem BioAssay data set” (2004)
Counter-ions that a name gives are not always drawn. Active and inactive are the calls of the source.

How the values were obtained:
[1] = system: P388; assay: cells; format: functional; conditions: Mus musculus
[2] = system: SN12K1; assay: cells; format: functional; conditions: Homo sapiens
[3] = system: P388/ADR; assay: cells; format: functional; conditions: Mus musculus
[4] = system: H9c2; assay: cells; format: functional, cell-based; conditions: Rattus norvegicus, H9c2, Myocardium;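 also: confirmatory concentration-response retest of ultra-high-throughput screening hits for modulation of myocardial damage; cell death induced by hydrogen peroxide oxidative stress; compound pretreatment for 60 min then peroxide exposure for 2 h; potency is for protecting the cells against peroxide damage rather than for killing them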
[5] = cells; format: functional, cell-based
[6] = cells; format: functional, cell-based; remark: listed apart in the source
[7] = target: T1, RNA-binding protein pos-1 (Caenorhabditis elegans, UniProt G5EF15); assay: disruptors of C. elegans POS-1 RNA interaction – biochemical, fluorescence polarization, dose response (AID 1964);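 also: purified POS-1 fused to maltose binding protein made in E. coli; potency of compounds blocking POS-1 binding to fluorescent RNA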
T1 sequence (G5EF15 whole entry): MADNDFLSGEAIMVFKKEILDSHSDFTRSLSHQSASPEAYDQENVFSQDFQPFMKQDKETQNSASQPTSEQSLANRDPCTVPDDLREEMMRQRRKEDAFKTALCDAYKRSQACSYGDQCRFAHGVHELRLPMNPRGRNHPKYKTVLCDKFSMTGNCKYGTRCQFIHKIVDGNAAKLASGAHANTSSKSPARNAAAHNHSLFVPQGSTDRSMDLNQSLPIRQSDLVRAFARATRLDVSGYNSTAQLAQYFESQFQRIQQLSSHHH

[8] = Trypanosoma cruzi growth suppression in host cells – NIH3T3 host cells, beta-gal luminescence, confirmation (AID 2044); format: functional, cell-based;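 also: intracellular parasites grown in NIH/3T3 mouse fibroblasts as host cells; luminescent beta-galactosidase reporter signal from transgenic T. cruzi replicating inside host cells; inhibitors lower the luminescence signal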
[9] = target: Heat shock protein HSP 90-alpha (Homo sapiens, UniProt P07900); format: functional, organism-based
[10] = NIH3T3 cell viability loss – ATP luminescence, mouse fibroblasts, counter-screen, dose response (AID 2010); format: functional, cell-based;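 also: cells exposed to compound for about 90 hours before reading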
[11] = target: Cytochrome P450 2C9 (Homo sapiens, UniProt P11712)
[12] = Luminescence Cell-Based Dose Response HTS to Identify Activators of Luciferase Translation or Activity in H4 […] Cells. [Related pubchem assays: 1829 (Project Summary), 1814 (Primary HTS)]; format: functional
[13] = system: H4; assay: Luminescence Cell-Based Dose Response HTS to Identify Activators of 5'UTR Stem-Loop Driven Prion Protein mRNA Translation in H4 Neuroglioblastoma Cells. [Related pubchem assays: 1829 (Project Summary), 1814 (Primary HTS)]; format: functional; conditions: Homo sapiens
[14] = Luminescence Cell-Based Dose Confirmation HTS to Identify Activators of 5'UTR Stem-Loop Driven Alpha-Synuclein mRNA Translation in H4 Neuroglioblastoma Cells. [Related pubchem assays: 1829 (Project Summary), 1814 (Primary HTS)]; format: functional
[15] = target: Cytochrome P450 2D6 (Homo sapiens, UniProt P10635);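 also: CYP2D6 member of a cytochrome P450 panel assay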
[16] = target: Cytochrome P450 2C19 (Homo sapiens, UniProt P33261); assay: Cytochrome panel assay with activity outcomes. Panel member name: p450-cyp2c19 Compounds with AC50 equal or less than 10 uM are considered active; format: functional; conditions: read-out: AC50
[17] = NIH-3T3 fibroblast cytotoxicity, dose response, cytotoxicity control, cell-based, fluorescence, Alamar Blue, secondary assay (AID 2327); format: functional;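 also: NIH-3T3 mouse fibroblasts cultured with fluconazole at 8 µg/mL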
[18] = fluconazole-exposed Candida albicans growth modulators – fluorescence, retest, confirmation (AID 2467); format: functional, cell-based
[19] = system: Streptococcus sp. 'group A'; assay: Streptococcus pyogenes SK(-)GAS viability under kanamycin – luminescence, BacTiterGlo, confirmation, counter-screen for streptokinase expression inhibitor project, dose response (AID 1900); format: functional, organism-based; conditions: read-out: EC50
[20] = target: T2, Streptokinase A (Streptococcus pyogenes serotype M1, UniProt P10520); assay: viability-normalized secreted streptokinase activity reduction – plasminogen activation absorbance, OD405, dose response (AID 1914); format: functional, Streptococcus pyogenes M1 GAS;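 also: secreted streptokinase activity via plasminogen activation per viability signal from cell pellet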
T2 sequence (P10520 whole entry): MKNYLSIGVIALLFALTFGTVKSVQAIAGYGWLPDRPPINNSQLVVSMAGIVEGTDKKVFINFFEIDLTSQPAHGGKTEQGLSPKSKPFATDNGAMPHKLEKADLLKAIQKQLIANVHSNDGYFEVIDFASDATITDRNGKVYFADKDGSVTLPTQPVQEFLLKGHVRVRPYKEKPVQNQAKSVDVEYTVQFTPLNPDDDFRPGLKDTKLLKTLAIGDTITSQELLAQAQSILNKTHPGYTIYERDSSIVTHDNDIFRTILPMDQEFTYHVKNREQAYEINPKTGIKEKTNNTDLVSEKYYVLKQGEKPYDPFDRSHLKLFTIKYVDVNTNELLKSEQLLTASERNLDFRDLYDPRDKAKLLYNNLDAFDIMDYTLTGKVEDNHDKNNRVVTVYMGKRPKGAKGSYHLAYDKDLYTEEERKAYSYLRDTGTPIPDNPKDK

[21] = system: Streptococcus; assay: GAS UMAA2166 growth inhibition – luminescence, BacTiterGlo, counter-screen for streptokinase expression inhibitor project, dose response (AID 1915); format: functional, organism-based;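 also: potency for reduction of bacterial viability or growth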
[22] = viability of uninfected HEp-2 cells – cell-based, HTS, cytotoxicity control for RSV inhibitor project, dose response (AID 2410); format: functional; conditions: human respiratory syncytial virus
[23] = target: T3, Cytochrome P450 1A2 (Homo sapiens, UniProt P05177);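 also: PubChem cytochrome P450 panel assay, CYP1A2 panel member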
T3 sequence (P05177 whole entry): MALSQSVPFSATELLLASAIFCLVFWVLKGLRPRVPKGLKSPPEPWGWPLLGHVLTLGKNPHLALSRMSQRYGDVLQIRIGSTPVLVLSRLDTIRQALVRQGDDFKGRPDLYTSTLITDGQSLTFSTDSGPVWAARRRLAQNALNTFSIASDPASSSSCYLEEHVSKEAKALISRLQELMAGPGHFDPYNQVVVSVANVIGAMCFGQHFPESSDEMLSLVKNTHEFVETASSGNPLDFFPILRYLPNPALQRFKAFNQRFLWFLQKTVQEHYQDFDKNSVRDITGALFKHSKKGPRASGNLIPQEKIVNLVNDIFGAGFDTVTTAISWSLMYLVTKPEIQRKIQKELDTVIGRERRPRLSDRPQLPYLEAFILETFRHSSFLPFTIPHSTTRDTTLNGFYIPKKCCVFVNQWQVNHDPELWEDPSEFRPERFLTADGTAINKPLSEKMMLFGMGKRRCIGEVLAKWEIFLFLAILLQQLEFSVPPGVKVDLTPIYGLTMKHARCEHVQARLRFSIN

[24] = target: Cytochrome P450 3A4 (Homo sapiens, UniProt P08684);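 also: CYP3A4 tested as one member of a cytochrome P450 panel screen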
Chain of Cytochrome P450 3A4 (P08684 whole entry): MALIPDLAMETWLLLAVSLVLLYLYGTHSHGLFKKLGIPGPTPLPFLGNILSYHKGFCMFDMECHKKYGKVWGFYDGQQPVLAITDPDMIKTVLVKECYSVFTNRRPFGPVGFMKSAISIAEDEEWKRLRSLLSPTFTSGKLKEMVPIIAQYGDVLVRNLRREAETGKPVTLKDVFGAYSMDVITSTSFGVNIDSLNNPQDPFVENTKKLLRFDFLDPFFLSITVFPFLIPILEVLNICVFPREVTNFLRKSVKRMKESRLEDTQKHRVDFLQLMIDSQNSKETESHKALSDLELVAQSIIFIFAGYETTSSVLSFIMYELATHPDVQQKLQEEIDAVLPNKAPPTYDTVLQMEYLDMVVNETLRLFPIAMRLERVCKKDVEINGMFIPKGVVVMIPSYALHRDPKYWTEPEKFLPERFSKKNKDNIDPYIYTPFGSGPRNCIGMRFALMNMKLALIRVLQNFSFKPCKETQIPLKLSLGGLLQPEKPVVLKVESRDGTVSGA

Chain of Cytochrome P450 2C19 (P33261 whole entry): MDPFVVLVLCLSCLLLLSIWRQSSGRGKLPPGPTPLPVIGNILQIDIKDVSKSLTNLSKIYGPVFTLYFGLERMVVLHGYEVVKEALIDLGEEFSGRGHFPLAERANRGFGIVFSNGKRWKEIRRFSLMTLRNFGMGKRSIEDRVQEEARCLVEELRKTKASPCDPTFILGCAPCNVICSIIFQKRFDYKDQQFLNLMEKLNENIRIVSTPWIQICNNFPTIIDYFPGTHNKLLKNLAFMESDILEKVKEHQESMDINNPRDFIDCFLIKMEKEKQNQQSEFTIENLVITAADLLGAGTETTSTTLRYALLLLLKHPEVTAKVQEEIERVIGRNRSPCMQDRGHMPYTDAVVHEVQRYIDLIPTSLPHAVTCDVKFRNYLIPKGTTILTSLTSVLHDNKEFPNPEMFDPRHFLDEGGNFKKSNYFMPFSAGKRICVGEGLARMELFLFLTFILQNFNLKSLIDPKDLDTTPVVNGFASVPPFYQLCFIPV
Chain of Cytochrome P450 2D6 (P10635 whole entry): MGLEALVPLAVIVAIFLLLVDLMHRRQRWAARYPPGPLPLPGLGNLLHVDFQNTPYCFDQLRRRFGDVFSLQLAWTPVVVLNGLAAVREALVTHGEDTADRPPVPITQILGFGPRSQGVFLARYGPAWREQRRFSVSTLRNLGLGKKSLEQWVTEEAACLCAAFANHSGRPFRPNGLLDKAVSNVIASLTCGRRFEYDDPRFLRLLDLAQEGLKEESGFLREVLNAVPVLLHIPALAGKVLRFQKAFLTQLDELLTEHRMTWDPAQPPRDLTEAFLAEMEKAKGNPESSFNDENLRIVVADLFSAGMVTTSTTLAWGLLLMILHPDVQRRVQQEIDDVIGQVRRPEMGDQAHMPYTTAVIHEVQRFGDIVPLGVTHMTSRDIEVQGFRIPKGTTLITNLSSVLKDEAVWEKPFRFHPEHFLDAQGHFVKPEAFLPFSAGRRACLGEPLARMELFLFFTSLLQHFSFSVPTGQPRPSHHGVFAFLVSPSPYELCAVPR
Chain of Cytochrome P450 2C9 (P11712 whole entry): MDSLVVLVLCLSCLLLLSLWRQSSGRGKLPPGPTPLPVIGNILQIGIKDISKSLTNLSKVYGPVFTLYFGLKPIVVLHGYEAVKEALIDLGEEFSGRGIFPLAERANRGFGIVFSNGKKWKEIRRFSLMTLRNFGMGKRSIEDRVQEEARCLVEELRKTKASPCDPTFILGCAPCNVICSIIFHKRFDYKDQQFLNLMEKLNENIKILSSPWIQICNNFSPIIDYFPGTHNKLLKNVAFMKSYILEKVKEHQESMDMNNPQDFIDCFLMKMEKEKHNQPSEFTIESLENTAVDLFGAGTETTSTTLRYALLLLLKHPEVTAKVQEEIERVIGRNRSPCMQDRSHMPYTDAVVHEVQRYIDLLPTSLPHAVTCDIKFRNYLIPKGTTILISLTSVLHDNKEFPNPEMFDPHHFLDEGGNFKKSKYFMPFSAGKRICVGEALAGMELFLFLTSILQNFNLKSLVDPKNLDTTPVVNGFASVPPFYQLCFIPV

CC1=C2C(O)C(C(C)C(=O)N(C)C)CCC2(C)C=CC1=O (configuration not stated)
GI50 [1]: > 100 µM (inactive) | GI50 [2]: > 100 µM (inactive) | GI50 [3]: > 100 µM (inactive)

CCOC(=O)C1C(=O)NC(SCC(=O)OC)=C(C#N)C1c1ccccc1OCC (configuration not stated)
IC50 [4]: 67.2 µM (inactive)

CCCCCN(C(=O)CCC(=O)OCC(=O)c1ccc(C(C)CC)cc1)c1c(N)n(CCCC)c(=O)[nH]c1=O (configuration not stated)
EC50 [5]: > 350 µM (not active) | EC50 [6]: > 350 µM (not active)

COc1ccc2nc(NC(=O)CSc3nccc(C)n3)sc2c1
EC50 [5]: > 350 µM (not active) | EC50 [6]: > 350 µM (not active)

CC[C@]1(O)C[C@H]2CN(CCc3c([nH]c4ccccc34)[C@@](C(=O)OC)(c3cc4c(cc3OC)N(C=O)[C@H]3[C@@](O)(C(=O)OC)[C@H](OC(C)=O)[C@]5(CC)C=CCN6CC[C@]43[C@@H]65)C2)C1 [VINCRISTINE SULFATE]
GI50 [1]: 0.1 µM (active) | GI50 [2]: 0.1 µM (active) | GI50 [3]: 0.171 µM (active)

Cc1cc(NC(=S)Nc2ccccc2)c(NC(=S)Nc2ccccc2)cc1C
GI50 [1]: 1.41 µM (inactive) | GI50 [2]: 18.5 µM (inactive) | GI50 [3]: 3.3 µM (inactive)

CCOc1ccc(N2C(=O)/C(=C/c3ccco3)C(=O)NC2=S)cc1
EC50 [7]: 55.3 µM (active)

COc1ccc(N(C(=O)c2cccnc2)S(=O)(=O)c2cccs2)cc1
IC50 [4]: > 79 µM (inactive)

O=C1c2ccccc2NC(c2c[nH]nc2-c2ccccc2)N1O (configuration not stated)
IC50 [4]: 20.8 µM (active)

COc1cc(/C=C/C(=O)Oc2ccccc2)ccc1C(=O)O/C=C/c1ccccc1
GI50 [1]: 3.78 µM (inactive) | GI50 [2]: > 100 µM (inactive) | GI50 [3]: 0.83 µM (active)

CC1C(=O)C(C)C(c2ccco2)N(N=O)C1c1ccco1 (configuration not stated)
GI50 [1]: > 100 µM (inactive) | GI50 [2]: > 100 µM (inactive) | GI50 [3]: 63.4 µM (inactive)

CC(=O)c1ccc(-c2cnc3c(NC=O)cc(-c4ccc(C(=O)NC5CC5)cc4)cn23)cc1
IC50 [4]: > 79 µM (inactive)

O=C(Nc1cc(Cl)ccc1-n1cncn1)c1ccc([N+](=O)[O-])s1
EC50 [8]: 0.207 µM (active) | AC50 [9]: 3.72 µM (active) | EC50 [10]: > 60 µM (not active)

CC(C)n1nnnc1SCC(=O)c1ccc2c(c1)OCCO2
AC50 [11]: 17.8 µM (inconclusive) | EC50 [12]: 0.624 µM (active) | EC50 [13]: > 120 µM (not active) | EC50 [14]: 0.276 µM (active) | AC50 [15]: 14.1 µM (inconclusive)

Nc1nncs1
GI50 [1]: 711 µM (inactive) | GI50 [2]: 2120 µM (inactive) | GI50 [3]: 665 µM (inactive)

Oc1ccc(Cl)cc1CNCC1CCCO1 (configuration not stated)
EC50 [5]: > 350 µM (not active) | EC50 [6]: > 350 µM (not active)

c1ccc(-c2ccc(N3CC[C@@]4(CCCNC4)C3)cc2)cc1
AC50 [16]: 20 µM (inconclusive) | AC50 [15]: 39.8 µM (inconclusive)

N=C(NOC(=O)C(c1ccccc1)c1ccccc1)c1cccnc1
EC50 [5]: > 350 µM (not active) | EC50 [6]: > 350 µM (not active)

CC1CCCN(Cc2nc3c(c(=O)n(C)c(=O)n3C)n2CCCc2ccccc2)C1 (configuration not stated)
IC50 [4]: 12.4 µM (active)

CCCCCC(O)C1C(=O)OC(C)C(O)/C=C/C=C/C=C/C=C/C=C(\C)C(O)C(O)C(O)CC(O)CC(O)CC(O)CC(O)CC1O (configuration not stated)
GI50 [1]: 0.904 µM (active) | GI50 [2]: 1.44 µM (inactive) | GI50 [3]: 1.95 µM (inactive)

CC1(C)CC(=O)C(CC2C(=O)CC(C)(C)CC2=O)C(=O)C1
EC50 [5]: 98.1 µM (active) | EC50 [6]: > 350 µM (not active)

COc1cccc(/C=N/Nc2cc(-n3nc(C)cc3-c3ccccc3)ncn2)c1O
EC50 [17]: 61 µM (active) | EC50 [5]: > 350 µM (not active) | EC50 [18]: 1.57 µM (active) | EC50 [6]: > 350 µM (not active)

CC(C)NC(=O)OCc1c(COC(=O)NC(C)C)c(-c2ccc(Cl)c(Cl)c2)n2c1CCC2
GI50 [1]: > 100 µM (inactive) | GI50 [2]: > 100 µM (inactive) | GI50 [3]: > 100 µM (inactive)

Cc1oc(-c2ccc(Cl)cc2)nc1C[S+]([O-])CC(=O)NCCN1CCCCCC1 (configuration not stated)
EC50 [5]: > 350 µM (not active) | EC50 [6]: > 350 µM (not active)

Cc1nc(O)nc(O)c1/C=C/C(=O)O
GI50 [1]: 631 µM (inactive) | GI50 [2]: > 1000 µM (inactive) | GI50 [3]: > 1000 µM (inactive)

Cc1ccc(C(=O)CSc2cc(C)nc(O)n2)cc1
EC50 [5]: > 350 µM (not active) | EC50 [6]: > 350 µM (not active)

Cc1ccc2nc(-c3ccc(NS(=O)(=O)c4ccc(F)cc4)cc3)sc2c1
EC50 [19]: 3.12 µM (active) | AC50 [9]: 4.57 µM (active) | EC50 [20]: > 150 µM (not active) | EC50 [21]: 5.33 µM (active)

COc1ccccc1CCn1c(=O)c(-c2ccc(F)c(F)c2)nc2cncnc21
AC50 [15]: 31.6 µM (inconclusive)

COc1ccc(-c2nn(-c3ccccc3)cc2C(=O)N2CCN(S(=O)(=O)c3cccc(F)c3)CC2)cc1
AC50 [9]: 2.04 µM (active)

CSc1nnc2c3cc(F)ccc3n(C)c2n1
AC50 [9]: 5.56 µM (active) | CC50 [22]: 30 µM (active)

CCCc1cc2c(n1Cc1ccc(OC)cc1)C(C)C1CN(C(=O)c3ccccc3)C(C)(C(=O)OC)C21 (configuration not stated)
AC50 [16]: 0.00631 µM (inconclusive) | AC50 [23]: 15.8 µM (inconclusive) | AC50 [15]: 39.8 µM (inconclusive)

CN(C)c1nc(-c2cccc(NS(C)(=O)=O)c2)nc2ccccc12
AC50 [16]: 20 µM (inconclusive) | AC50 [15]: 25.1 µM (inconclusive)

O=C(CCN1CCOCC1)/C(=C/c1ccccc1)c1ccccc1
GI50 [1]: 2.29 µM (inactive) | GI50 [2]: 3.03 µM (inactive) | GI50 [3]: 1.11 µM (active)

COC(=O)[C@@]1(Cc2ccccc2)[C@H]2c3cc(C(=O)N(C)C)n(Cc4cc(F)c(F)c(F)c4)c3C[C@H]2CN1C(=O)c1ccccc1
AC50 [15]: 25.1 µM (inconclusive)

COc1ccc(S(=O)(=O)N(C(=O)c2ccncc2)c2ccc(OC(=O)c3ccncc3)cc2)cc1
AC50 [9]: 1.65 µM (active)

CC(C(=O)N1CCOCC1)N1c2cccc3cccc(c23)S1(=O)=O (configuration not stated)
EC50 [5]: > 350 µM (not active) | EC50 [6]: > 350 µM (not active)

COc1ccc(/C=C2\N=C(c3c(-c4ccccc4)noc3C)OC2=O)cc1OC
AC50 [16]: 28.2 µM (inconclusive) | AC50 [11]: 1 µM (inconclusive) | AC50 [15]: 20 µM (inconclusive)

CCCN1C(=O)C(NC(C)=O)c2cc(OC)ccc21 (configuration not stated)
AC50 [24]: 22.4 µM (inconclusive) | AC50 [16]: 22.4 µM (inconclusive) | AC50 [15]: 0.00562 µM (inconclusive)
